Experimental data published in patent publication EP4506003A1, “HALOGEN DERIVATIVES OF (4´,5´- METHYLENEDIOXYPHENYL)-6,7-DIMETHOXY-1,2,3,4-TETRAHYDROISOQUINOLINE FOR USE IN THE TREATMENT OF LEUKEMIA” (S.Yu Yunusov Institute of Chemistry of Plant Substances of …, priority 2023, dated 2025).
Marks after values point to notes of the source that are not given here.

Tests used:
Rat liver hepatocytes = experiment: MTT cytotoxicity on hepatocytes; assay type: cell-based; conditions: Rattus norvegicus, Hepatocyte, 24 hours
Experimental: (§1) The cytotoxic properties of the compounds were determined in vitro using the MTT method in 96-well plates (Costar, USA). […] Rat liver hepatocytes were obtained according to the method, human blood mononuclear cells - according to [23]. Fibroblast cells were obtained according to the method of [24] with some modifications. Cell cultures were subcultured into 96-well plates according to the method of [21] by adding 100 μl of nutrient medium. The CCRF-CEM suspension culture was poured into a tube, centrifuged at 800 rpm for 10 minutes, and the supernatant was discarded. […] Data obtained in 3 independent experiments were expressed as the mean value for each concentration ± standard error of the mean, relative to the control values (cells without test compounds). The cytotoxic effect of each of the studied compounds was compared with the effect of the cytostatic Cisplatin-Naprod (India), containing cisplatin as an active component. Table 1: IC50 μM value for test compounds

[1] = test system: blood of patients with ALL; experiment: Hemogram of blood of patients with ALL after exposure; assay type: cell-based
Experimental: (§4) The effect of compounds F1 and F2 was studied on biological material (blood) of patients with hematological malignancies (leukemia), as well as for individual nosologies, in particular, patients with leukemia (combined group) (n=224), T-ALL (n=84), B-ALL (n=100), ALL (n=100), AML (n= 98), AML (n=94) and AML (n= 98) were studied. A total of 798 blood samples from patients with leukemia were examined.
(§5) 5 ml of venous blood from sick and conditionally healthy individuals were collected into Vacutainer tubes with the addition of EDTA (Himedia, India).
(§6) The resulting blood was divided into aliquots of 1 ml and 10 µl (10 µg/ml) of the studied drugs (cytosar, doxorubicin, F1 and F2) were added to each tube.

fibroblasts = experiment: MTT cytotoxicity on fibroblasts; assay type: cell-based; conditions: Fibroblast, 24 hours
Experimental: as §1

[2] = test system: blood of patients with AML; experiment: Hemogram of blood of patients with AML after exposure (Example 13, Table 10; also OMML); assay type: cell-based
Experimental: (§7) The drugs Cytosar (Alexan) (Ebewe Pharma, Austria) and doxorubicin (Naprod, Mumbai, India) recommended by WHO for the treatment of the above oncohematological diseases were used as comparison drugs.
as §5, §6

[3] = test system: blood of patients with AML; experiment: Hemogram of blood of patients with AML after exposure (Example 12, Table 9); assay type: cell-based
Experimental: as §7, §5, §6

[4] = test system: blood of patients with leukemia (combined group); experiment: Hemogram of blood of patients with leukemia (combined group) after exposure; assay type: cell-based
Excerpt: as §4, §7, §5, §6

[5] = test system: blood of patients with AML; experiment: Hemogram of blood of patients with AML after exposure (Example 14, Table 11); assay type: cell-based
Excerpt: as §4, §7, §5, §6

[6] = Acute toxicity study (LD50); conditions: mouse, in vivo, ip
Experimental: (§2) We studied the acute toxicity of compound F1 in vivo. The experiments were carried out on outbred white mice of both sexes weighing 18-20 g (24 pcs.). The animals were divided into groups of 12 mice each. The compound was dissolved in DMSO and then adjusted to the desired concentration with 0.9% NaCl solution and administered intraperitoneally and subcutaneously in a dose range from 5.0 to 200.0 mg/kg. […] The maximum relative error of the applied dose was no more than 5%.
(§3) We studied the acute toxicity of compound F2 in vivo. The experiments were carried out on outbred white mice of both sexes weighing 18-20 g (24 pcs.). The animals were divided into groups of 12 mice each. The compound was dissolved in DMSO and then brought to the desired concentration with 0.9% NaCl solution and administered intraperitoneally and subcutaneously to animals in a dose range from 5.0 to 200.0 mg/kg. […] The maximum relative error of the administered dose was no more than 5%.

outbred white mice = experiment: Acute toxicity study (LD50)
Experimental: as §2, §3

[7] = test system: blood of patients with T-ALL; experiment: Hemogram of blood of patients with T-ALL after exposure; assay type: cell-based
Excerpt: as §4, §7, §5, §6

[8] = test system: blood of patients with B-ALL; experiment: Hemogram of blood of patients with B-ALL after exposure; assay type: cell-based
Experimental: A total of 798 blood samples from patients with leukemia were examined.
as §7, §5, §6

[9] = test system: CCRF-CEM (CCL-119) (T-lymphoblastic leukemia); experiment: MTT cytotoxicity on CCRF-CEM cells; assay type: cell-based; conditions: Homo sapiens, 24 hours
Experimental: as §1

[10] = AML (Example 13), compared with doxorubicin
[11] = AML (Table 10), 10 µg/ml, 3 hours, 37.0°C
[12] = AML (Table 9), 10 µg/ml, 3 hours, 37.0°C
[13] = AML (Example 14), compared to cytosar
[14] = AML (Table 11), 10 µg/ml, 3 hours, 37.0°C

## COc1cc2c(cc1OC)C(c1cc3c(cc1Br)OCO3)NCC2 (centres unmarked) [Compound F1, 1-(2'-bromo-4',5'-methylenedioxyphenyl)-6,7-dimethoxy-1,2,3,4-tetrahydroisoquinoline]
Rat liver hepatocytes
  IC50: > 100 µM
[1]; 10 µg/ml, 3 hours, 37.0°C
  Band (s/n) neutrophils: 0,3±0,1%
  Blasts: 68,4±2,7*^ %
  Destroyed cells: 12,9±1,7*^ %
  Eosinophils: 0,0±0,0%
  Lymphocytes: 12,6±1,1 %
  Monocytes: 1,8±0,4%
  Myelocytes: 0,0±0,0%
  Promyelocytes: 0,0±0,0%
  Segmented (s/i) neutrophils: 4,2±1,0 %
[1]; compared to cytosar
  percentage of destroyed cells higher: 2.7 times
[1]; compared with cytosar
  difference in the level of blast cells: 1.15 times
fibroblasts
  IC50: > 100 µM
[2]; AML (Example 13)
  decrease in the percentage of myelocytes: 2.5 times
  decrease in the proportion of blasts: 1.6%
  increase in the proportion of destroyed cells: 5.3 times
  increase in the proportion of neutrophils: 2.0 times
[2]; AML (Example 13), compared with Cytosar
  proportion of destroyed cells higher: 2.4 times
[2]; [10]
  myelocytes lower: 1.5 times
  proportion of destroyed cells higher: 1.2 times
[2]; AML (Example 13), relative to cytosar
  percentage of myelocytes lower: 6.15 times
[2]; [11]
  Band (s/n) neutrophils: 2,8±0,3%
  Blasts: 51,1±2,2%
  Destroyed cells: 18,7±1,3*^ # %
  Eosinophils: 0,8±0,3%
  Lymphocytes: 6,2±0,6%
  Monocytes: 1,4±0,2 %
  Myelocytes: 2,6±0,5 %
  Promyelocytes: 0,0±0,0%
  Segmented (s/i) neutrophils: 16,6±1,3 %
[3]; AML (Example 12)
  decrease in the percentage of blasts: 1.2 times
  increase in the level of destroyed cells: 4.5 times
  increase in the proportion of mature differentiated neutrophils: 2.6 times
[3]; AML (Example 12), compared with cytosar
  increase in the percentage of destroyed cells: 2.0 times
[3]; AML (Example 12), compared with doxorubicin
  decrease in the percentage of destroyed cells: 2.3 times
[3]; [12]
  Band (s/n) neutrophils: 1,2±0,3%
  Blasts: 63,6±2,3 %
  Destroyed cells: 12,7±1,2*^ # %
  Eosinophils: 0,4±0,2%
  Lymphocytes: 10,7±1,1%
  Monocytes: 3,0±0,7%
  Myelocytes: 1,2±0,6%
  Promyelocytes: 0,3±0,2%
  Segmented (s/i) neutrophils: 7,0±0,7 %
[4]; 10 µg/ml, 3 hours, 37.0°C
  Band (s/n) neutrophils: 2,5±0,3 %
  Blasts: 65,7±2,3 %
  Destroyed cells: 14,8±1,8*^ # %
  Eosinophils: 4,0±0,6 %
  Lymphocytes: 12,0±0,9%
  Monocytes: 4,9±0,6 %
  Myelocytes: 4,0±0,5 %
  Promyelocytes: 5,0±0,6^ %
  Segmented (s/i) neutrophils: 7,0±0,8%
[4]; versus Control group
  decrease in the content of blasts: 10.7%
[4]; versus control
  increase in the percentage of neutrophils: 1.8 times
  increase in the proportion of destroyed cells: 9.3%
  increase in the proportion of eosinophils: 2.7 times
[5]; [13]
  percentage of blasts lower: 4.1%
  percentage of monocytes lower: 2.4 times
[5]; AML (Example 14), than after Cytosar
  percentage of destroyed cells higher: 1.8 times
[5]; [14]
  Band (s/n) neutrophils: 1,6±0,5%
  Blasts: 55,4±3,1 %
  Destroyed cells: 22,6±2,3*^ %
  Eosinophils: 0,0±0,0%
  Lymphocytes: 10,1±1,0%
  Monocytes: 2.0±0,6^ %
  Myelocytes: 0,9±0,3%
  Promyelocytes: 0,0±0,0%
  Segmented (s/i) neutrophils: 9,6±1,7%
[6]
  LD50 at 168 h: 240 ± 13.8 mg/kg
Outbred white mice; classified from LD50
  toxicity class: toxicity class 3 (moderately toxic)
Outbred white mice; intraperitoneal, mice, observed for a week, 10080 min
  LD50 dose: 240,0±13,8 mg/kg
Outbred white mice; relative to cytosar
  LD50 value, times higher than cytosar (cytarabine): 57 times
Outbred white mice; relative to doxorubicin
  LD50 value, times higher than doxorubicin: 22 times
[7]; 10 µg/ml, 3 hours, 37.0°C
  Band (s/n) neutrophils: 0.0±0.0%
  Blasts: 68,9±1,7 %
  Destroyed cells: 16,9±1,1*^ # %
  Eosinophils: 0,0±0,6%
  Lymphocytes: 9,1±1,0%
  Monocytes: 1,3±0,3 %
  Myelocytes: 0,0±0,0%
  Promyelocytes: 0,0±0,0%
  Segmented (s/i) neutrophils: 3.9±0,4 %
[7]; comparator not stated
  decrease in p/i neutrophils: 1.7 times
[7]; compared with cytosar
  increase in the proportion of destroyed cells: 1.9 times
[7]; compared with doxorubicin
  increase in the proportion of destroyed cells: 1.3 times
[8]
  decrease in the content of blasts: 1.16 times
  increase in the proportion of destroyed cells: 4.1 times
[8]; 10 µg/ml, 3 hours, 37.0°C
  Band (s/n) neutrophils: 1,4±0,4%
  Blasts: 59,0±2,9 %
  Destroyed cells: 12,6±2,0 %
  Eosinophils: 0,2±0,1%
  Lymphocytes: 13,5±1,7 %
  Monocytes: 3,5±0,8 %
  Myelocytes: 0,5±0,2%
  Promyelocytes: 0,0±0,0%
  Segmented (s/i) neutrophils: 9,4±0,9 %
[9]
  IC50: 36.6 µM
